28 compounds from ChEMBL document CHEMBL5291721, “A preclinical secondary pharmacology resource illuminates target-adverse drug reaction associations of marketed drugs” (Nat Commun, 2023) can be followed below.

One assay addresses Histamine H3 receptor (Homo sapiens, UniProt Q9Y5N1).
In assay [1] the target is Prostaglandin G/H synthase 1 (Homo sapiens, UniProt P23219). The format is functional.
Assay [2] has as its target Vascular endothelial growth factor receptor 2 (Homo sapiens, UniProt P35968). The format is functional.
The target of another assay is Vasopressin V1a receptor (Homo sapiens, UniProt P37288).
Another assay has as its target Cannabinoid receptor 1 (Homo sapiens, UniProt P21554). The format is functional, cell-based.
Another assay addresses Histamine H2 receptor (Homo sapiens, UniProt P25021). The format is functional, cell-based.
Assay [3] has as its target T1, Alpha-1A adrenergic receptor (Homo sapiens, UniProt P35348).
T1 sequence (P35348 whole entry): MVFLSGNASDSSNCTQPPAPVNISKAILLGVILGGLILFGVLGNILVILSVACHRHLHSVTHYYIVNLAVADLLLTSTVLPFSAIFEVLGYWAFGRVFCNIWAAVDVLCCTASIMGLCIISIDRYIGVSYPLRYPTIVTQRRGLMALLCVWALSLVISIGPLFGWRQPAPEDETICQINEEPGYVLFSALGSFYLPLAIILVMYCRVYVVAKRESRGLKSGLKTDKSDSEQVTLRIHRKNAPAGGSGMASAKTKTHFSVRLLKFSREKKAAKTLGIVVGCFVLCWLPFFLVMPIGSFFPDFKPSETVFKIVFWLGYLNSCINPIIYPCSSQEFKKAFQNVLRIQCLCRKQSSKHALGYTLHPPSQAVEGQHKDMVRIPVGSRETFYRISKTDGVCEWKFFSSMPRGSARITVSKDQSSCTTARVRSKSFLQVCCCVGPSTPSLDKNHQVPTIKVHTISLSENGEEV
The format is functional, cell-based.

A further assay deals with T2, Thromboxane A2 receptor (Homo sapiens, UniProt P21731).
T2 sequence (P21731 whole entry): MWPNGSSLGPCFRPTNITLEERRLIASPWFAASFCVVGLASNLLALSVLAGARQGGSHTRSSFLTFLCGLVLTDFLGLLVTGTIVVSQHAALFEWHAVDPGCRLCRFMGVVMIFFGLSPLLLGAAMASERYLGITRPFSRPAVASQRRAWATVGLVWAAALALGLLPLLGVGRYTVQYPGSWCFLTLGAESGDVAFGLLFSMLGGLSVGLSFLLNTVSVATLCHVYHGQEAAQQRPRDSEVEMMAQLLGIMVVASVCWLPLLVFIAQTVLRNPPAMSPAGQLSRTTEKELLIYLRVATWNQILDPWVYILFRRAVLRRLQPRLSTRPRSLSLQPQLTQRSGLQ

Assay [4] concerns the target T3, Alpha-2B adrenergic receptor (Homo sapiens, UniProt P18089).
T3 sequence (P18089 whole entry): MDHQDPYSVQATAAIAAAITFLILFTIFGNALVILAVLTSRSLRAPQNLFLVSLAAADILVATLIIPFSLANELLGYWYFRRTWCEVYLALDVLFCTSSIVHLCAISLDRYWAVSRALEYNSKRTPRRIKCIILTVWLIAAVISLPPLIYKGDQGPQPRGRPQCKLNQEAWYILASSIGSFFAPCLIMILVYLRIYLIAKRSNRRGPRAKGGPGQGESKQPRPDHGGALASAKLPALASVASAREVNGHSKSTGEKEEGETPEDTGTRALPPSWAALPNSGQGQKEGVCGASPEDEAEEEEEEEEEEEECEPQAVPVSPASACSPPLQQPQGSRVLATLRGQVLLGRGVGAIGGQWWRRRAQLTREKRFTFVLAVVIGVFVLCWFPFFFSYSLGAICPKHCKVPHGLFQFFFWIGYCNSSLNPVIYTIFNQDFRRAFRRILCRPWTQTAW

The target in the next assay is T4, Progesterone receptor (Homo sapiens, UniProt P06401).
T4 sequence (P06401 whole entry): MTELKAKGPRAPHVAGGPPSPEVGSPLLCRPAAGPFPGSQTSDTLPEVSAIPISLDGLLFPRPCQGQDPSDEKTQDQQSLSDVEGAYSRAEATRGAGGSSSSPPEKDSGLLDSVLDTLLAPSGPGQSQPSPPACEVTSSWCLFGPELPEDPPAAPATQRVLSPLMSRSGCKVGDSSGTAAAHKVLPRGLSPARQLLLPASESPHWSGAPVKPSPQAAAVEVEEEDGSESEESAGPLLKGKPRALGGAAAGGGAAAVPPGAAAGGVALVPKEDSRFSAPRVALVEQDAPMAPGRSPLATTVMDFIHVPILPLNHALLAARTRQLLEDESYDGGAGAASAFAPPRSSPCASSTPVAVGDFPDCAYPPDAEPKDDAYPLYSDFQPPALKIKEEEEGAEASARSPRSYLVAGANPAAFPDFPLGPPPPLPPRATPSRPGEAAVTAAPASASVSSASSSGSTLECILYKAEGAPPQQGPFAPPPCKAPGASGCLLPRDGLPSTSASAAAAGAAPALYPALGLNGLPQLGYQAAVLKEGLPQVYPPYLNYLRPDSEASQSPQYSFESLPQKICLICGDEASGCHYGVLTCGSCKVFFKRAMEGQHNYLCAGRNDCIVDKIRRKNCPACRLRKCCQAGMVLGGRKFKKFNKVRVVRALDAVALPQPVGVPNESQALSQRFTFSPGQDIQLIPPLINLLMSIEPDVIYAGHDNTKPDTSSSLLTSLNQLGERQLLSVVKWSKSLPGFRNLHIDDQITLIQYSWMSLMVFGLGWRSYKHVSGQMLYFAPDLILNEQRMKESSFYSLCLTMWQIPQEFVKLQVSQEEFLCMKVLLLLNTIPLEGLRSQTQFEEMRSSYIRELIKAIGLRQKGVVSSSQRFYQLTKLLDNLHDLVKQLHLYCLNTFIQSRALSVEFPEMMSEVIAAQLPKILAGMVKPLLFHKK
It is filed as functional.

In general, AC50 refers to the midpoint of the concentration-response curve, whichever way the signal moves. Lower therefore signals activity at low concentration.

A value given as a limit tells only on which side of the number the result lay.
Note: assay procedure not described here.

Sequence of Histamine H3 receptor (Q9Y5N1 whole entry): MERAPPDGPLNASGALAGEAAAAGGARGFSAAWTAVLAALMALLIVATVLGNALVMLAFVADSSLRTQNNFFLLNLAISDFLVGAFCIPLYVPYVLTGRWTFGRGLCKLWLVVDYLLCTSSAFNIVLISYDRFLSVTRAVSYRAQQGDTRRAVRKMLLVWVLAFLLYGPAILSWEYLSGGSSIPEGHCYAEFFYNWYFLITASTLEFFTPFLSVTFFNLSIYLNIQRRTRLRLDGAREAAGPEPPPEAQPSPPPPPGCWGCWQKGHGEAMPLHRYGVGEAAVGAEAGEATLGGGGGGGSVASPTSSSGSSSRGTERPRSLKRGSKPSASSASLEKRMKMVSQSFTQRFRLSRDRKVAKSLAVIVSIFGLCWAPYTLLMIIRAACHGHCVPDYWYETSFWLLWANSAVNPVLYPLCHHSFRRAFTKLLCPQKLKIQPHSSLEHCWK
Sequence of Cannabinoid receptor 1 (P21554 whole entry): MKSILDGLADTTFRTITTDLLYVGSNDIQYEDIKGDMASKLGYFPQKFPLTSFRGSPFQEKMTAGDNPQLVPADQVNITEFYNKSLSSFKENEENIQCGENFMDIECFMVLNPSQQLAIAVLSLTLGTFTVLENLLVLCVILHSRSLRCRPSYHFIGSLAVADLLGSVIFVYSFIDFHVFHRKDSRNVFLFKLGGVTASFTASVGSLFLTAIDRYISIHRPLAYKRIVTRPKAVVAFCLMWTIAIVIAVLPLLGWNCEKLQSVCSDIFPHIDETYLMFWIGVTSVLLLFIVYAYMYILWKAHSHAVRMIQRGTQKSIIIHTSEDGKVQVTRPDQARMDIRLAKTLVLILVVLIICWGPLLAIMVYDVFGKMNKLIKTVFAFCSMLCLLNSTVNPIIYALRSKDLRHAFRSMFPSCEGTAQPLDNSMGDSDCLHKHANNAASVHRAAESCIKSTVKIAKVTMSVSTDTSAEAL
Sequence of Vasopressin V1a receptor (P37288 whole entry): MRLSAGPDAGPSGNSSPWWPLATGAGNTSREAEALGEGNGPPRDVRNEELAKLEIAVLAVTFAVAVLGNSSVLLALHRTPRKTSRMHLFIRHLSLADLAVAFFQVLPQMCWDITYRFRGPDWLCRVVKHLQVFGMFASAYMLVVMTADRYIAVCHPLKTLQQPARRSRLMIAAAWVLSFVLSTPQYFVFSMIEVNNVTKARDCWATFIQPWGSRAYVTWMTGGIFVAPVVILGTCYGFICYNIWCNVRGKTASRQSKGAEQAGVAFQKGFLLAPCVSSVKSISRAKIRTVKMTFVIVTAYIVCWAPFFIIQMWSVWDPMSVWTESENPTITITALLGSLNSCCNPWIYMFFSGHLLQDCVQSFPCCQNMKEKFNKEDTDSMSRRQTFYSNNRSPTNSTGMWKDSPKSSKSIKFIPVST
Sequence of Vascular endothelial growth factor receptor 2 (P35968 whole entry): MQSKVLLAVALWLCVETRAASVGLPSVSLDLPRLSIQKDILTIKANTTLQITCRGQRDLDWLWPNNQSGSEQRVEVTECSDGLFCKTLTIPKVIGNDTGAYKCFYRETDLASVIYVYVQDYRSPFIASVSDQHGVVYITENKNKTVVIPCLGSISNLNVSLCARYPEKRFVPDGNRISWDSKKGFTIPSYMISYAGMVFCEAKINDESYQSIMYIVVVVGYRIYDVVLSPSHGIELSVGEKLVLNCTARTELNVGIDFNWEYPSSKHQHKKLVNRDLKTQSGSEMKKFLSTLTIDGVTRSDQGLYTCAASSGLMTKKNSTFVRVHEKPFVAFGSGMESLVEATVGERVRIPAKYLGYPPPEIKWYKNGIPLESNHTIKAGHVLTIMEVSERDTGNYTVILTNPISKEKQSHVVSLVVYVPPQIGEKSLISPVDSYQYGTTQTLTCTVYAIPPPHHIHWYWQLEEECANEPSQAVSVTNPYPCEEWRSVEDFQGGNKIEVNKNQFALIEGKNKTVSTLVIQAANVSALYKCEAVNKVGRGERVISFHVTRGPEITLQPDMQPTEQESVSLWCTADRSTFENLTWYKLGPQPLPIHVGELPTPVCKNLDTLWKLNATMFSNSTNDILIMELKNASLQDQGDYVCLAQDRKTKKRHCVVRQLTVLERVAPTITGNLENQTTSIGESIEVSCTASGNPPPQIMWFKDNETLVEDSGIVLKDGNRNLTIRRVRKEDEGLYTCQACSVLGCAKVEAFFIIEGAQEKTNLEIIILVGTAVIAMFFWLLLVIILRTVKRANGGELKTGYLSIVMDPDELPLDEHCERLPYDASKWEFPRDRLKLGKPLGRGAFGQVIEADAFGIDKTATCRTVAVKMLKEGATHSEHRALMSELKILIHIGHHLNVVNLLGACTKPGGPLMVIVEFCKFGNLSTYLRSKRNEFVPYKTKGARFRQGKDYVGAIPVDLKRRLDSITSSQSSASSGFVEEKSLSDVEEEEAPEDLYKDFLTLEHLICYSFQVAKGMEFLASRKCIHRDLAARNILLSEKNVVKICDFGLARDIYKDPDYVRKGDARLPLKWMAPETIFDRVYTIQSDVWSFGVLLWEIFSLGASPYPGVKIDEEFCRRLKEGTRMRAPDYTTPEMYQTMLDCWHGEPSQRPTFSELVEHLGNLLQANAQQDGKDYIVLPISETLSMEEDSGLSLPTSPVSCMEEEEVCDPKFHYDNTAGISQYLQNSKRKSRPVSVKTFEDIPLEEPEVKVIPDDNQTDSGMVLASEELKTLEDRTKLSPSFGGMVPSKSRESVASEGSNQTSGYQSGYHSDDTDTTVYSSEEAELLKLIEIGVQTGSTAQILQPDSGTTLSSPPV
Sequence of Prostaglandin G/H synthase 1 (P23219 whole entry): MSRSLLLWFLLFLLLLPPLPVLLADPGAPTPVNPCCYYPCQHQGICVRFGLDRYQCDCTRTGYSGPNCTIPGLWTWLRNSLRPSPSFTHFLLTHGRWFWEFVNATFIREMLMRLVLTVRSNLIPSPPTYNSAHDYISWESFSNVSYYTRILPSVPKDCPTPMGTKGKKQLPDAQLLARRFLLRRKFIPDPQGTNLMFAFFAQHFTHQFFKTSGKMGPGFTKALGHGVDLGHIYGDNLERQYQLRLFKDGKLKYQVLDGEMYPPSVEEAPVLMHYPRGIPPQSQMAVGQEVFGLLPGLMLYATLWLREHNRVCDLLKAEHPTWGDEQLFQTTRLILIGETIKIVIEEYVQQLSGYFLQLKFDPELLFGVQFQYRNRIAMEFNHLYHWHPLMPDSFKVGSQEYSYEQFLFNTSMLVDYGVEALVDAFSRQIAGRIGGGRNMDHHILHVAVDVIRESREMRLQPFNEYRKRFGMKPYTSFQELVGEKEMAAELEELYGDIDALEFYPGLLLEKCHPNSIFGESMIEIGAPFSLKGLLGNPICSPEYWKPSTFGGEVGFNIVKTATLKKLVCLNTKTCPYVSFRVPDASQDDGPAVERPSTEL
Sequence of Histamine H2 receptor (P25021 whole entry): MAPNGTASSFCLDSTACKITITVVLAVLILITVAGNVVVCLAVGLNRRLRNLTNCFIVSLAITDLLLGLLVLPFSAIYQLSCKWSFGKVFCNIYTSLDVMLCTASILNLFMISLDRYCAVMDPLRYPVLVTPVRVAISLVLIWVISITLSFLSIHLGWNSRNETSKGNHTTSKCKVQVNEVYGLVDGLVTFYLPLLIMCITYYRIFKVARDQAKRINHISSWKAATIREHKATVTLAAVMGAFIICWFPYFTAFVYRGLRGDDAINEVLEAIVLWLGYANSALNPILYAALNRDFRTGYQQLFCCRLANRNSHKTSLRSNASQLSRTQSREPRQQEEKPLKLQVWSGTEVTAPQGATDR

For the compound `OC[C@H]1NC[C@H](O)[C@@H](O)[C@H]1O`, the half-maximal activity concentration (AC50) (on Histamine H3 receptor; in assay [1]; in [2]) was greater than 30 µM each time.

`CCOC(=O)[C@H](CCc1ccccc1)N[C@@H](C)C(=O)N1Cc2ccccc2C[C@H]1C(=O)O`: the AC50 was greater than 10 µM at Vasopressin V1a receptor; greater than 30 µM on Histamine H3 receptor; greater than 30 µM on Cannabinoid receptor 1; greater than 10 µM on Histamine H2 receptor; greater than 30 µM in assay [3]; greater than 30 µM in [1]. The AC50 (in assay [2]; on Thromboxane A2 receptor) was greater than 30 µM in each case.

For `CC#CC(=O)N1CCC[C@H]1c1nc(-c2ccc(C(=O)Nc3ccccn3)cc2)c2c(N)nccn12` [ACALABRUTINIB], the AC50 at Histamine H3 receptor is greater than 30 µM; in assay [1], greater than 30 µM; in assay [2], 2.01 µM.

On to `C=CCOc1ccc(CC(=O)O)cc1Cl` [ALCLOFENAC], for which the AC50 is greater than 30 µM on Histamine H3 receptor, greater than 3 µM in [1] and greater than 30 µM in assay [2].

On to `CC(=O)Oc1ccccc1C(=O)O` [ASPIRIN], for which the AC50 on Vasopressin V1a receptor is greater than 30 µM; at Histamine H3 receptor, greater than 30 µM; on Cannabinoid receptor 1, greater than 30 µM; on Histamine H2 receptor, greater than 10 µM; in assay [3], greater than 30 µM; in [2] it was greater than 30 µM. This compound showed an AC50 at Thromboxane A2 receptor greater than 30 µM.

For `NC(=O)C1(N2CCCCC2)CCN(CCCN2c3ccccc3CCc3ccccc32)CC1` [CARPIPRAMINE], the values for the AC50 (at Histamine H3 receptor; in assay [1]; in assay [2]) were 11.7 µM, greater than 30 µM and greater than 30 µM, respectively.

Turning to `CN1CCN(C(c2ccccc2)c2ccc(Cl)cc2)CC1` (stereo not drawn) [CHLORCYCLIZINE], the figures for the AC50 (at Histamine H3 receptor; in [1]; in [2]) were 15.8 µM, greater than 30 µM and greater than 30 µM, respectively.

In the case of `CN(C)CCCC1(c2ccc(F)cc2)OCc2cc(C#N)ccc21` (stereo not drawn) [CITALOPRAM], the AC50 at Vasopressin V1a receptor is greater than 10 µM; at Histamine H3 receptor, greater than 30 µM; on Cannabinoid receptor 1, greater than 30 µM; in assay [1], greater than 30 µM; in assay [2], greater than 30 µM; on Thromboxane A2 receptor it was greater than 30 µM.

Turning to `O=P1(N(CCCl)CCCl)NCCCO1` (stereo not drawn) [CYCLOPHOSPHAMIDE ANHYDROUS], the AC50 (at Histamine H3 receptor; in assay [1]; in assay [2]) was greater than 30 µM throughout.

On to `CC(C)Nc1cccnc1N1CCN(C(=O)c2cc3cc(NS(C)(=O)=O)ccc3[nH]2)CC1` [DELAVIRDINE], for which the AC50 (on Histamine H3 receptor; in assay [1]; in assay [2]) was greater than 30 µM in each case.

With `C[C@H](Nc1ncnc2[nH]cnc12)c1cc2cccc(Cl)c2c(=O)n1-c1ccccc1` [DUVELISIB], the AC50 (at Vasopressin V1a receptor; at Histamine H3 receptor; on Cannabinoid receptor 1; in assay [3]; in assay [4]; at Progesterone receptor) was greater than 30 µM in each case. The AC50 in assay [1] was greater than 30 µM.

Take `C[C@]12CC[C@@H]3c4ccc(OC(=O)N(CCCl)CCCl)cc4CC[C@H]3[C@@H]1CC[C@@H]2OP(=O)(O)O` [ESTRAMUSTINE PHOSPHATE]: the results for the AC50 (on Histamine H3 receptor; in [1]; in [2]) were greater than 30 µM, greater than 30 µM and 19.5 µM, respectively.

In the case of `O=c1[nH]c2ccccc2n1CCN1CCN(c2cccc(C(F)(F)F)c2)CC1` [FLIBANSERIN], the half-maximal activity concentration (AC50) (on Histamine H3 receptor; in assay [1]; in assay [2]) was greater than 30 µM each time.

As to `O=C(O)[C@H](O)[C@@H](O)[C@H](O)[C@H](O)CO` [GLUCONIC ACID], the AC50 (at Histamine H3 receptor; in assay [1]; in assay [2]) was greater than 30 µM throughout.

For `N=C(N)NCC1COc2ccccc2O1` (stereo not drawn) [GUANOXAN], the half-maximal activity concentration (AC50) (on Histamine H3 receptor; in assay [1]; in assay [2]) was greater than 30 µM in each case.

For `N#Cc1ccnc(N2C(=O)CC[C@H]2C(=O)N(c2cncc(F)c2)[C@H](C(=O)NC2CC(F)(F)C2)c2ccccc2Cl)c1` [IVOSIDENIB], the AC50 (on Histamine H3 receptor; in assay [1]; in assay [2]) was greater than 30 µM each time.

With `CNC1(c2ccccc2Cl)CCCCC1=O` (stereo not drawn) [KETAMINE], the AC50 (on Histamine H3 receptor; in [1]; in assay [2]) was greater than 30 µM in each case.

As to `O=C1[C@@H]2[C@H]3CC[C@H](C3)[C@@H]2C(=O)N1C[C@@H]1CCCC[C@H]1CN1CCN(c2nsc3ccccc23)CC1` [LURASIDONE], the AC50 (on Vasopressin V1a receptor; at Histamine H3 receptor; at Cannabinoid receptor 1; on Progesterone receptor; in assay [1]; in assay [2]) was greater than 30 µM each time.

On to `CCCCCCO[C@@H](C)c1cccc(-c2csc(NC(=O)c3cc(Cl)c(/C=C(\C)C(=O)O)c(Cl)c3)n2)c1OC` [LUSUTROMBOPAG], for which the AC50 at Histamine H3 receptor is 15.1 µM; in assay [1], 6.42 µM; in assay [2] it was greater than 30 µM.

Take `Cc1cc(C)cc(OCC2CNC(=O)O2)c1` (stereo not drawn) [METAXALONE]: the AC50 (on Histamine H3 receptor; in [1]; in assay [2]) was greater than 30 µM throughout.

Take `CCCCCCCC/C=C\CCCCCCCC(=O)O` [OLEIC ACID]: the AC50 was greater than 30 µM on Histamine H3 receptor, 3.54 µM in [1] and greater than 30 µM in assay [2].

With `CC1=C(C/C=C(\C)CCC[C@H](C)CCC[C@H](C)CCCC(C)C)C(=O)c2ccccc2C1=O` [PHYTONADIONE], the AC50 at Histamine H3 receptor was greater than 30 µM; in assay [1], 13.4 µM; in [2], greater than 30 µM.

As to `NC(=O)C1(N2CCCCC2)CCN(CCCC(=O)c2ccc(F)cc2)CC1` [PIPAMPERONE], the AC50 on Histamine H3 receptor was 21.7 µM; in [1], greater than 30 µM; in [2] it was greater than 30 µM.

`CC(C)(Oc1ccc(Cl)cc1)C(=O)NC(=O)NCN1CCOCC1` [PLAFIBRIDE]: the concentration at half-maximal activity (AC50) (on Histamine H3 receptor; in assay [1]; in assay [2]) was greater than 30 µM throughout.

For the compound `CC(C)NC[C@H](O)COc1ccc(O)cc1` [PRENALTEROL], the AC50 at Histamine H3 receptor is greater than 30 µM; in assay [1] it was 5.86 µM; in assay [2] it was greater than 30 µM.

Take `CN1CCC(N(Cc2cccs2)c2ccccc2)CC1` [THENALIDINE]: the concentration at half-maximal activity (AC50) (on Histamine H3 receptor; in assay [1]; in assay [2]) was greater than 30 µM in each case.

For the compound `Cc1ccc(C(C)C)c(O)c1` [THYMOL], the AC50 was greater than 30 µM on Histamine H3 receptor, greater than 3 µM in assay [1] and greater than 30 µM in [2].

Take `Cc1cccc(C)c1NC(=O)c1cc(S(N)(=O)=O)c(Cl)cc1O` [XIPAMIDE]: the concentration at half-maximal activity (AC50) (on Histamine H3 receptor; in assay [1]; in assay [2]) was greater than 30 µM in each case.
